Activity calls are given as the source filed them.
How the values were obtained:
Cytochrome P450 2D6 = Cytochrome P450 2D6 (Homo sapiens, UniProt P10635);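 further: CYP2D6 member of a cytochrome P450 panel assay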
[1] = HEp-2 cell cytotoxicity, dose response, cytotoxicity control for RSV inhibitor project, HTS (AID 2410); format: functional; conditions: human respiratory syncytial virus
[2] = test system: Streptococcus sp. 'group A'; assay: growth inhibition of control SK(-) GAS strain, dose response, counter-screen for streptokinase expression inhibitor project, luminescence, kanamycin, BacTiterGlo, confirmation (AID 1900); format: functional, organism-based
Streptokinase A = target: T1, Streptokinase A (Streptococcus pyogenes serotype M1, UniProt P10520); assay: S. pyogenes streptokinase expression inhibitors, potency, dose response, plasminogen activation absorbance, OD405 (AID 1914); format: functional, Streptococcus pyogenes M1 GAS;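 further: secreted streptokinase activity via plasminogen activation per viability signal from cell pellet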
T1 sequence (P10520 whole entry): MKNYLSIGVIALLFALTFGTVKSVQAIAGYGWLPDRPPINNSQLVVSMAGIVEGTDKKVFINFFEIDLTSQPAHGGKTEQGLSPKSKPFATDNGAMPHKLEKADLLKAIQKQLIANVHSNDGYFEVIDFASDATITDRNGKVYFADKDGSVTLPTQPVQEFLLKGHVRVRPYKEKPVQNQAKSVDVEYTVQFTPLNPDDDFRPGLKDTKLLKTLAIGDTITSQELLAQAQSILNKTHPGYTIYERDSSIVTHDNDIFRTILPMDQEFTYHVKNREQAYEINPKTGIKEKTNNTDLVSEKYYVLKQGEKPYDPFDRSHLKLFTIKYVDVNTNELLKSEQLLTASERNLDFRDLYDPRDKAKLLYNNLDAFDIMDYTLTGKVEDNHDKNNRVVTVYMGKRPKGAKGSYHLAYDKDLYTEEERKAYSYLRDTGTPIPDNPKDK

Streptococcus = assay: Group A Streptococcus viability loss, dose response, counter-screen for streptokinase expression inhibitor project, luminescence, BacTiterGlo (AID 1915); format: functional, organism-based;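 further: potency for reduction of bacterial viability or growth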
H4 = assay: Luminescence Cell-Based Dose Response HTS to Identify Activators of 5'UTR Stem-Loop Driven Prion Protein mRNA Translation in H4 Neuroglioblastoma Cells. [Related pubchem assays: 1829 (Project Summary), 1814 (Primary HTS)]; format: functional; conditions: Homo sapiens
[3] = Luminescence Cell-Based Dose Retest to Confirm Inhibitors of Cancer Stem Cells. [Related pubchem assays (depositor defined):AID2717, AID2721]; format: functional; conditions: Homo sapiens
Cytochrome P450 2C19 = Cytochrome P450 2C19 (Homo sapiens, UniProt P33261); assay: Cytochrome panel assay with activity outcomes. Panel member name: p450-cyp2c19 Compounds with AC50 equal or less than 10 uM are considered active; format: functional
Cytochrome P450 2C9 = Cytochrome P450 2C9 (Homo sapiens, UniProt P11712)
[4] = target: T2, Replicative DNA helicase DnaB (Mycobacterium tuberculosis, UniProt P9WMR3); assay: DnaB intein splicing inhibitors, dose response, biochemical, cell-free fluorescence (AID 449749); format: functional
T2 sequence (P9WMR3 whole entry): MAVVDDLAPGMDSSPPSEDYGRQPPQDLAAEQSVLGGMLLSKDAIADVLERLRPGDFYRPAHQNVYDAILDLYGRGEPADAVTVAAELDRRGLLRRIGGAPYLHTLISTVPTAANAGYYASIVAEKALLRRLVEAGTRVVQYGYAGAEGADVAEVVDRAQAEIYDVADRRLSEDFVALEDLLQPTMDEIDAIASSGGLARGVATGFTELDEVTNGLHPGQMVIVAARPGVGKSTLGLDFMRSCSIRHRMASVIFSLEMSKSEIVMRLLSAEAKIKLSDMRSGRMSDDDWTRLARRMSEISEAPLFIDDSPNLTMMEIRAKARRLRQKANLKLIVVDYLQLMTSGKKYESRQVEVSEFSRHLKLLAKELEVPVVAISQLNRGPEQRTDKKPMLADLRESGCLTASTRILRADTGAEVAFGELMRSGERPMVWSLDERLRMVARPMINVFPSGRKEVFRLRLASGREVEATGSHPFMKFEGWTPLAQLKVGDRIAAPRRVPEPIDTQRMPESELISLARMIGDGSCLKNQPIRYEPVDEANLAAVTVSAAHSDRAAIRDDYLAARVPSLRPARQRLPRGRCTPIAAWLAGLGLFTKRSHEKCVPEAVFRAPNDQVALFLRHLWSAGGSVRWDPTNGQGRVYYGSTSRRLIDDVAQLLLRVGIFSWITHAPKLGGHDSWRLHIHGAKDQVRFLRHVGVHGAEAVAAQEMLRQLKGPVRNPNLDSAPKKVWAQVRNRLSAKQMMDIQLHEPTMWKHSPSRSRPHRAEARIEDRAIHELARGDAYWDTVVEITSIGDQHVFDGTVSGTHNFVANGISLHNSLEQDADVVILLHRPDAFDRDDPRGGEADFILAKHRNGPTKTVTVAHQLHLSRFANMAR

Protein RecA = target: T3, Protein RecA (Mycobacterium tuberculosis, UniProt P9WHJ3); assay: Fluorescence Cell-Free Homogeneous Dose Retest to Identify Inhibitors of RecA-Intein Splicing Activity. [Related pubchem assays (depositor defined):AID2097, AID2223, AID489010, AID492950]; format: functional
T3 sequence (P9WHJ3 whole entry): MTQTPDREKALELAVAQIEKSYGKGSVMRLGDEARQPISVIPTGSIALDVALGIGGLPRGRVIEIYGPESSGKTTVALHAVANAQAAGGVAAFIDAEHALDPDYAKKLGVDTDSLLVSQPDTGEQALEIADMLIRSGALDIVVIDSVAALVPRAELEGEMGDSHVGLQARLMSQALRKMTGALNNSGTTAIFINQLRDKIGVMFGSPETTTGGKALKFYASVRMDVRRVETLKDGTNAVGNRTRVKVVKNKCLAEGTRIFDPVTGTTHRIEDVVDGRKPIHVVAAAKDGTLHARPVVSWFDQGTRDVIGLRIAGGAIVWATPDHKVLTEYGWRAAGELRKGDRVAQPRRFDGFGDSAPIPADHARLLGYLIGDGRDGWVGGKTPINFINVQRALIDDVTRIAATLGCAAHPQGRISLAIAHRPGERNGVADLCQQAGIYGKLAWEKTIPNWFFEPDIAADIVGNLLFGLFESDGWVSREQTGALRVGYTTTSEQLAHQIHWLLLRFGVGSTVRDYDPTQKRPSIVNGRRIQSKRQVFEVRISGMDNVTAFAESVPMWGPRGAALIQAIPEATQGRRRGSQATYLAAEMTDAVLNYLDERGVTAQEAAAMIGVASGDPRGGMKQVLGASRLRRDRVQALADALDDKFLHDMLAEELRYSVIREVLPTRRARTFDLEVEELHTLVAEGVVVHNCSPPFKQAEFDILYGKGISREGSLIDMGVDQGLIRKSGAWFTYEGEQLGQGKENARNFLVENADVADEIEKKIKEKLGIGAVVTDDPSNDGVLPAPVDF

[5] = target: T4, Rac GTPase-activating protein 1 (Homo sapiens, UniProt Q9H0H5); assay: MgcRacGAP GTPase-activating activity inhibitors, confirmation, biochemical, ADP Hunter fluorescence, primary and confirmatory (AID 624330); format: functional
T4 sequence (Q9H0H5 whole entry): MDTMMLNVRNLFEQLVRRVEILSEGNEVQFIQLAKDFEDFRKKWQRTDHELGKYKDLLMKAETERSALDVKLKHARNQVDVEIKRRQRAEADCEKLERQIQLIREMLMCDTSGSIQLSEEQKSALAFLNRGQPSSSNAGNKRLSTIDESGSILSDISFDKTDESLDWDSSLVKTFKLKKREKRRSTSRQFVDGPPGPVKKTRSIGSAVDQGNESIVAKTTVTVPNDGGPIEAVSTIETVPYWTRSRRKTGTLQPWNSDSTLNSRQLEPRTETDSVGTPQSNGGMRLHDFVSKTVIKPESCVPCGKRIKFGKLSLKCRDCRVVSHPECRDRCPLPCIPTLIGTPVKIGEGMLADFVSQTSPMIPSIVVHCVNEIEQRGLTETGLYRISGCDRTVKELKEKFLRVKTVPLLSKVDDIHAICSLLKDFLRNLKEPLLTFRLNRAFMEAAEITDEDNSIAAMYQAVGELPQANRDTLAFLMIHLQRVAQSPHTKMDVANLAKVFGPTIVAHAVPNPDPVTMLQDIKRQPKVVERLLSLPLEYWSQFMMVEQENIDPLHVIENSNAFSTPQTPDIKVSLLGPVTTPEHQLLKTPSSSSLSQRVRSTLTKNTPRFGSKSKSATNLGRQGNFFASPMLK

Cytochrome P450 1A2 = target: T5, Cytochrome P450 1A2 (Homo sapiens, UniProt P05177);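 further: PubChem cytochrome P450 panel assay, CYP1A2 panel member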
T5 sequence (P05177 whole entry): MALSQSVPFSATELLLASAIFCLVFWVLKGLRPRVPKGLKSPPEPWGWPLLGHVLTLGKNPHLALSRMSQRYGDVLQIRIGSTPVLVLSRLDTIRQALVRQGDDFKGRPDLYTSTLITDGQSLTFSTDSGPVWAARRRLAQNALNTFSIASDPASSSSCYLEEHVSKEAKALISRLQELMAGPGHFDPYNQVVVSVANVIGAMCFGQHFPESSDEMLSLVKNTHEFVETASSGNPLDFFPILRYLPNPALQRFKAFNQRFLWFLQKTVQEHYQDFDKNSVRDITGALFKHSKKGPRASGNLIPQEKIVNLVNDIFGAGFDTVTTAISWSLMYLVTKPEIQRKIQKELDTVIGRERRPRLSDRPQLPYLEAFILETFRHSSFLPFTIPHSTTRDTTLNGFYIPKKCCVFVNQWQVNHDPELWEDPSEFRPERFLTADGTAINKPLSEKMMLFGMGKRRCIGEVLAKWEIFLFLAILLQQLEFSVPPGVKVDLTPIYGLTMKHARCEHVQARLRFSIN

Cytochrome P450 3A4 = Cytochrome P450 3A4 (Homo sapiens, UniProt P08684);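 further: CYP3A4 tested as one member of a cytochrome P450 panel screen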
Chain of Cytochrome P450 3A4 (P08684 whole entry): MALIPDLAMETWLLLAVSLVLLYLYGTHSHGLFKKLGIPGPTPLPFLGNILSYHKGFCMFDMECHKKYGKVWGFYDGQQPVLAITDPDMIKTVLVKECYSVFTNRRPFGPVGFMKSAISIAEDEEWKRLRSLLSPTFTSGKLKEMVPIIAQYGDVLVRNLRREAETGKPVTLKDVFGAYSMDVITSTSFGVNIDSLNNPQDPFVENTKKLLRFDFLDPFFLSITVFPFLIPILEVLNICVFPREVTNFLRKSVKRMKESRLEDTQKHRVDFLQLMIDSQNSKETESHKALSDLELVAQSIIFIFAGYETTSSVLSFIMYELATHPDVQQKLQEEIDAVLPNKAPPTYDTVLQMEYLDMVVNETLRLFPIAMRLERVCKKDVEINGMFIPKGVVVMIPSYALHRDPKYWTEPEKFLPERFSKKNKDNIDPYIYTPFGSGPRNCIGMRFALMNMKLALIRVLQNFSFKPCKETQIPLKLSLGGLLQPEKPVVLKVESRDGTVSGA

Chain of Cytochrome P450 2D6 (P10635 whole entry): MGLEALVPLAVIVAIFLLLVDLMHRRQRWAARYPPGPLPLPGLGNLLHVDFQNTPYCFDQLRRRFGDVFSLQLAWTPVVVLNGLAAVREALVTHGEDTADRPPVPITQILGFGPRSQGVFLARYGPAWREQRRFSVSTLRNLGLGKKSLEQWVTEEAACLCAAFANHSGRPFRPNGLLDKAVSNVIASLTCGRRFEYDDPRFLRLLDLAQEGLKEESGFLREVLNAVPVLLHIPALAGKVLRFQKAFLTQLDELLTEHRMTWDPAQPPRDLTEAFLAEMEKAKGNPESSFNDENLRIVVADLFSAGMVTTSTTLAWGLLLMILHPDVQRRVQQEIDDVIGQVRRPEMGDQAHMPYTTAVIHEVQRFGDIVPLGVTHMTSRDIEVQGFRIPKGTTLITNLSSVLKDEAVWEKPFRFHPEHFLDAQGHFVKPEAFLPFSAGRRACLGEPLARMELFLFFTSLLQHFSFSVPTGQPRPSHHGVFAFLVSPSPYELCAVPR
Chain of Cytochrome P450 2C19 (P33261 whole entry): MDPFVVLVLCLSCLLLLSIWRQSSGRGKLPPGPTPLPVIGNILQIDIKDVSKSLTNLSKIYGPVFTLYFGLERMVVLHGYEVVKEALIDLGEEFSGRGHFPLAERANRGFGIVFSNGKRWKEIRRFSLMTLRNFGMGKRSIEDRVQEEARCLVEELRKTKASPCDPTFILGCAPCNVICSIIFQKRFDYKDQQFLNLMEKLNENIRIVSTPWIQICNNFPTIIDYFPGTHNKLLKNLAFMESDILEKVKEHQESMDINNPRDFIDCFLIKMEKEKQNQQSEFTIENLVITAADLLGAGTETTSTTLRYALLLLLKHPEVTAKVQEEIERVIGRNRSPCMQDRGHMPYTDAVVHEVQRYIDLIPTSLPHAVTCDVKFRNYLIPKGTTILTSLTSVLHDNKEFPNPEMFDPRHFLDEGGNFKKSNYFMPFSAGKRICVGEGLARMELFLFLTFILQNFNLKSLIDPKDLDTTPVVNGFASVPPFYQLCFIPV
Chain of Cytochrome P450 2C9 (P11712 whole entry): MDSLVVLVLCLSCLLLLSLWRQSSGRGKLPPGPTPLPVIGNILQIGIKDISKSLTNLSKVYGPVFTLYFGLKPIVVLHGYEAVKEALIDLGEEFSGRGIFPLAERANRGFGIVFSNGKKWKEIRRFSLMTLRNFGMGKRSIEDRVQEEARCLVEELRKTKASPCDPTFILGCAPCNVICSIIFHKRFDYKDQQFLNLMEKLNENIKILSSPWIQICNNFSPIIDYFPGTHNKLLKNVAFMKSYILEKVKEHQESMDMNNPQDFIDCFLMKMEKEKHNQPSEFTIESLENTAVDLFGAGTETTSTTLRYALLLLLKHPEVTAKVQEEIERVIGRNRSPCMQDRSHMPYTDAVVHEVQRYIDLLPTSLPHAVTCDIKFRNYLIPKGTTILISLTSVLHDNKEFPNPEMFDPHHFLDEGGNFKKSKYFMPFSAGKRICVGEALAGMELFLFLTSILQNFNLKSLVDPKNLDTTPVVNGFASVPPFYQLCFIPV

c1cncc(-c2cncnc2NCc2cccs2)c1
AC50 (Cytochrome P450 2D6): 39.8 µM (inconclusive)

COc1cccc(C2=CC(c3ccc(OC)c(OC)c3OC)n3nnnc3N2)c1 (configuration not stated)
CC50 [1]: 6.56 µM (active)

C[C@]12CC[C@@H]3c4ccc(OC(=O)c5ccccc5)cc4CC[C@H]3[C@@H]1CC[C@@H]2O [ESTRADIOL BENZOATE]
EC50 [2]: 2.24 µM (active) | EC50 (Streptokinase A): 2.43 µM (active) | EC50 (Streptococcus): 4.49 µM (active)

Fc1ccccc1OCCCCSc1ncccn1
AC50 (Cytochrome P450 2D6): 17.8 µM (inconclusive)

COC(=O)CSc1nnc(C)n1-c1cccc(OC)c1
AC50 (Cytochrome P450 2D6): 3.16 µM (inconclusive)

O=C(/C(=N\Nc1ccc([N+](=O)[O-])cc1)Sc1nnnn1-c1ccccc1)c1ccccc1
EC50 [2]: 5.19 µM (active) | EC50 (Streptokinase A): > 150 µM (not active) | EC50 (Streptococcus): 35.8 µM (active)

O=S(=O)(c1ccccc1)N1CCC2(CCCN(c3ccccc3)C2)CC1
AC50 (Cytochrome P450 2D6): 10 µM (inconclusive)

O=C(NCc1ccccc1)c1cccc(COc2cccc(Cl)c2)c1
AC50 (Cytochrome P450 2D6): 31.6 µM (inconclusive)

COc1cc2sc3ccc(-c4ccc5[nH]ccc5c4)cc3c(=O)c2cc1OC
EC50 (H4): > 120 µM (not active)

N#Cc1nc(-c2cccc3ccccc23)oc1NCC1CCCO1 (configuration not stated)
CC50 [1]: 21.7 µM (active)

c1ccc(-c2cc(-c3ccncc3)nc3ccc4ccccc4c23)cc1
EC50 [2]: 3.37 µM (active) | EC50 (Streptokinase A): > 150 µM (not active) | EC50 (Streptococcus): 8.51 µM (active) | AC50 [3]: 3.39 µM (active)

CC(C)N(CC(N)=O)c1ncnc2sc(-c3ccccc3)cc12
CC50 [1]: 25.9 µM (active)

COc1ccc(C2c3c(ncn(CCN4CCOCC4)c3=N)Oc3ccc4ccccc4c32)cc1OC (configuration not stated)
AC50 (Cytochrome P450 2C19; read-out: AC50): 25.1 µM (inconclusive) | AC50 (Cytochrome P450 2D6): 15.8 µM (inconclusive)

Cc1ccc2c(CC(=O)N3CCc4ccccc43)coc2c1
EC50 (H4): 18.5 µM (active)

Nc1ccccc1Sc1nc2ccccc2[nH]1
EC50 [2]: 21.3 µM (active) | EC50 (Streptokinase A): > 150 µM (not active) | EC50 (Streptococcus): > 150 µM (not active)

Cc1cc(OC(=O)CCCNC(=O)OC(C)(C)C)c2c3c(c(=O)oc2c1)CCC3
AC50 (Cytochrome P450 2D6): 15.8 µM (inconclusive)

O=C(O)CC[P+](c1ccccc1)(c1ccccc1)c1ccccc1
AC50 (Cytochrome P450 2C19): inconclusive | AC50 (Cytochrome P450 2D6): 3.98 µM (inconclusive)

CC(C)(C)OC(=O)[C@H](Cc1ccccc1)NC(=O)c1[nH]cnc1C(=O)Nc1ccc(Cl)cc1
EC50 [2]: 3.71 µM (active) | EC50 (Streptokinase A): 21.5 µM (active) | EC50 (Streptococcus): 11.1 µM (active) | AC50 [3]: 4.51 µM (active)

CCCn1c(N)c(C(=O)CSc2nc(C)cs2)c(=O)n(C)c1=O
AC50 (Cytochrome P450 2D6): 20 µM (inconclusive) | AC50 (Cytochrome P450 2C9): 28.2 µM (inconclusive)

Cc1oc2cc(Br)c(O)c(Br)c2c1-c1ccccc1
EC50 [2]: 8.24 µM (active) | EC50 (Streptokinase A): > 150 µM (not active) | EC50 (Streptococcus): 8.18 µM (active)

COc1cccc(-c2cncnc2Nc2ccc(F)cc2)c1
AC50 (Cytochrome P450 2D6): 39.8 µM (inconclusive)

Cc1cc(-c2c(C)[nH]n(-c3ccc(Cl)cc3)c2=O)n[nH]1
EC50 (Streptokinase A): > 150 µM (not active)

Cc1nc(Nc2ccc(O)cc2)c2c3c(sc2n1)CCCC3
AC50 [4]: > 380 µM (inactive) | EC50 (Protein RecA): 125 µM (active) | IC50 [5]: 28.8 µM (active)

Cc1ccc(-c2ccc(=O)n(CC(=O)NCc3ccco3)n2)cc1
AC50 (Cytochrome P450 2D6): 22.4 µM (inconclusive) | AC50 (Cytochrome P450 1A2): 15.8 µM (inconclusive) | AC50 (Cytochrome P450 3A4): 25.1 µM (inconclusive)

CCOC(=O)c1c(S(=O)(=O)N2CCCCCC2)c(C)n(C)c1C
EC50 [2]: > 150 µM (not active) | EC50 (Streptokinase A): > 150 µM (not active) | EC50 (Streptococcus): > 150 µM (not active)

COc1cccc(Cn2c(=O)cnc3cnc(Oc4cccc(Cl)c4)nc32)c1
AC50 (Cytochrome P450 2D6): 39.8 µM (inconclusive)

Cc1cc(=O)oc2cc(OCC(=O)N3CCN(C(=O)C4COc5ccccc5O4)CC3)ccc12 (configuration not stated)
EC50 [2]: 2.83 µM (active) | EC50 (Streptokinase A): > 50 µM (not active) | EC50 (Streptococcus): 10.4 µM (active)

From ChEMBL document CHEMBL1201862, “PubChem BioAssay data set” (2004)
